Test results from patent US20170348376A1, “TUBULYSIN CONJUGATE FOR USE IN TREATING CANCER” (ENDOCYTE, INC., priority 2016, published 2017).
Structures can show the parent of a compound that is named as a salt.

Assays:
[1] = test system: primary human NSCLC model LU2505 tumors; assay: Antitumor activity in Huprime NSCLC PDX tumor model LU2505; type: in vivo, Balb/c nu/nu mice; conditions: Docetaxel 15 mg/kg, one dose
Method: (§1) These studies were performed at Crown Bioscience (Beijing) Inc., Ground Floor, Light Muller Building, Changping Sector of Zhongguancun Scientific Park, No. 21 Huoju Road, Changping District, Beijing, P.R. China.

[2] = test system: primary human NSCLC model LU1147 tumors; assay: Antitumor activity in Huprime NSCLC PDX tumor model LU1147; type: in vivo, Balb/c nu/nu mice; conditions: Docetaxel 15 mg/kg, one dose
Method: as §1

[3] = test system: primary human TNBC model ST502 tumors; assay: Antitumor activity in TNBC ST502 model; type: in vivo, Balb/c nu/nu mice; conditions: Eribulin mesylate 1 mg/kg, once a week for two weeks (SIW×2); n=7
Method: (§2) These materials were obtained from and studies were performed at South Texas Accelerated Research Therapeutics, 4383 Medical Drive, San Antonio, Tex. 78229

[4] = test system: primary human TNBC model ST738 tumors; assay: Antitumor activity in TNBC ST738 model; type: in vivo, Balb/c nu/nu mice; conditions: Eribulin mesylate 1 mg/kg, once a week for two weeks (SIW×2); n=7
Method: as §2

[5] = test system: primary human Ovarian model ST024 tumors; assay: Antitumor activity in Ovarian ST024 model; type: in vivo, Balb/c nu/nu mice; conditions: Paclitaxel 15 mg/kg, once a week for two weeks (SIW×2); n=7
[6] = test system: FR-positive paclitaxel resistant KB-PR10 tumors; assay: Antitumor activity on paclitaxel resistant KB-PR10 tumors; type: in vivo, nu/nu mice; conditions: paclitaxel 20 mg/kg, three times a week for two weeks (TIW×2), i.v.
Method: Four to six week-old female nu/nu mice (Harlan Sprague Dawley, Inc., Indianapolis, Ind.) were maintained on a standard 12 h light-dark cycle and fed ad libitum with folate-deficient chow (Harlan diet #TD00434, Harlan Teklad, Madison, Wis.) for the duration of the experiment. FR-positive paclitaxel resistant KB-PR10 cells were grown continuously as a monolayer, using folate-free RPMI medium (FFRPMI) containing 5% heat-inactivated fetal calf serum (HIFCS) at 37° C. in a 5% CO2/95% air-humidified atmosphere with no antibiotics. KB-PR10 cells (1×10^6 per nu/nu mouse) in 100 μL were injected in the subcutis of the dorsal medial area. […] Mice were treated with 20 mg/kg Paclitaxel, 2 μmol/kg EC145 (See WO2004/069159 for a description of EC145) or 1 μmol/kg Compound I on a three times a week for 2 weeks schedule when the tumors were approximately 100-145 mm^3, 101-129 mm^3 and 100-140 mm^3 in volume, respectively. The mice in the control groups received no treatment.

[7] = test system: primary human Endometrial model ST040 tumors; assay: Antitumor activity in Endometrial ST040 model; type: in vivo, Balb/c nu/nu mice; conditions: Paclitaxel 15 mg/kg, once a week for two weeks (SIW×2); n=3

Q: Which results are given for `CC(=O)O[C@@]12CO[C@@H]1C[C@H](O)[C@@]1(C)C(=O)[C@H](O)C3=C(C)[C@@H](OC(=O)[C@H](O)[C@@H](NC(=O)OC(C)(C)C)c4ccccc4)C[C@@](O)([C@@H](OC(=O)c4ccccc4)[C@H]21)C3(C)C` [Docetaxel]?
A: anti-tumor activity [1]: some anti-tumor activity; anti-tumor activity [2]: minimal anti-tumor activity

Q: `C=C1C[C@@H]2CC[C@@]34C[C@H]5O[C@H]6[C@@H](O3)[C@H]3O[C@H](CC[C@@H]3O[C@H]6[C@H]5O4)CC(=O)C[C@@H]3[C@@H](OC)[C@@H](C[C@H](O)CN)O[C@H]3C[C@H]3O[C@@H](CC[C@@H]1O2)C[C@@H](C)C3=C` [Eribulin mesylate] was tested. Which anti-tumor activity [3] did it give?
A: minimal anti-tumor activity

Q: And the anti-tumor activity [4]?
A: some anti-tumor activity

Q: For `CC(=O)O[C@H]1C(=O)[C@@]2(C)[C@H]([C@H](OC(=O)c3ccccc3)[C@]3(O)C[C@H](OC(=O)[C@H](O)[C@@H](NC(=O)c4ccccc4)c4ccccc4)C(C)=C1C3(C)C)[C@]1(OC(C)=O)CO[C@@H]1C[C@@H]2O` [Paclitaxel], which anti-tumor activity [5] is on record?
A: no anti-tumor activity

Q: And the anti-tumor activity [6]?
A: little to no anti-tumor activity

Q: And the partial responses [6]?
A: 0

Q: And the anti-tumor activity [7]?
A: minimal anti-tumor activity
